From ChEMBL document CHEMBL4483862, “Open-source discovery of chemical leads for next-generation chemoprotective antimalarials” (2018)

Test system: Plasmodium berghei
Experiment: Luciferase/luciferin-expressing antifolate-resistant parasites were used to infect a culture of HepG2 cells that were pre-incubated with compounds. Infected hepatocytes emit light due to the luciferase reaction. Assay results are presented as the percent inhibition of light emission compared to control. […]
Assay type: functional
Conditions: sporozoite; for IC90: read-out: LUCIFERASE INFECTION ASSAY - IC90
[1] = read-out: LUCIFERASE INFECTION ASSAY - IC50

Compound | IC90 | also measured
Cc1cc(C(O)(C(F)(F)F)C(F)(F)F)c(C)n1-c1ccc(N(C)C)cc1 | > 10 µM | IC50 (HEPG2TOX_HILL_SLOPE 5.45, HEPG2TOX_R_SQUARED 0.58, PBLUC_HILL_SLOPE 4.49, PBLUC_R_SQUARED 0.403, read-out: LUCIFERASE INFECTION ASSAY - IC50): 7.53 µM
Cc1nn(Cc2nc3ccccc3s2)c(C)c1S(=O)(=O)N(C)Cc1ccco1 | > 10 µM | IC50 [1]: > 10 µM
Nc1ccc(-c2cnn3c(N4CCOCC4)ccnc23)cc1 | 8.75 µM | IC50 (FFLUC_HILL_SLOPE 1.28, FFLUC_R_SQUARED 0.893, PBLUC_HILL_SLOPE 0.747, PBLUC_R_SQUARED 0.679, read-out: LUCIFERASE INFECTION ASSAY - IC50): 0.462 µM
COc1ccc(OC)c(NC(=O)Nc2ccc(OC(F)(F)F)cc2)c1 | > 9.26 µM | IC50 (PBLUC_HILL_SLOPE 22.3, PBLUC_R_SQUARED 0.0229, read-out: LUCIFERASE INFECTION ASSAY - IC50): 9.07 µM
COC(=O)c1cc(CNC(=O)c2ccccc2O)ccc1OC | > 10 µM | IC50 [1]: > 10 µM
CNc1snc(C)c1C(=O)OCc1ccc(-n2cccn2)cc1 | 1.04 µM | IC50 (HEPG2TOX_HILL_SLOPE 12.1, HEPG2TOX_R_SQUARED 0.465, PBLUC_HILL_SLOPE 2.29, PBLUC_R_SQUARED 0.748, read-out: LUCIFERASE INFECTION ASSAY - IC50): 0.4 µM
CC(C)CC(N)c1csc(NC(=O)Nc2ccccc2C(C)(C)C)n1 (configuration not stated) | 3.05 µM | IC50 (PBLUC_HILL_SLOPE 4.98, PBLUC_R_SQUARED 0.541, read-out: LUCIFERASE INFECTION ASSAY - IC50): 1.96 µM
O=C(NCC1CC1)c1cccc(C2(CNCc3ccc(F)c(Cl)c3)CC2)c1 | > 10 µM | IC50 [1]: > 10 µM
CCOc1ccc(C(C)=O)cc1CSc1nc2ccccc2c(=O)n1C(C)COC (configuration not stated) | 3.98 µM | IC50 (HEPG2TOX_HILL_SLOPE 2.93, HEPG2TOX_R_SQUARED 0.419, PBLUC_HILL_SLOPE 1.84, PBLUC_R_SQUARED 0.699, read-out: LUCIFERASE INFECTION ASSAY - IC50): 1.21 µM
Cn1cc(-c2cnc3cnc(-c4ccccc4Oc4ccccc4)cn23)cn1 | 3.5 µM | IC50 (PBLUC_HILL_SLOPE 18.2, PBLUC_R_SQUARED 0.499, read-out: LUCIFERASE INFECTION ASSAY - IC50): 3.1 µM
COc1ccc(-c2nnc(NC(=O)c3ccc(C)c(S(=O)(=O)N4CCCCC4)c3)[nH]2)cc1 | 6.51 µM | IC50 (HEPG2TOX_HILL_SLOPE 2.01, HEPG2TOX_R_SQUARED 0.893, PBLUC_HILL_SLOPE 2.99, PBLUC_R_SQUARED 0.681, read-out: LUCIFERASE INFECTION ASSAY - IC50): 3.12 µM
Clc1cccc(Cl)c1/C=C/c1nc2ccccc2n1Cc1ccccc1 | > 8.7 µM | IC50 (HEPG2TOX_HILL_SLOPE 4.4, HEPG2TOX_R_SQUARED 0.96, PBLUC_HILL_SLOPE 4.2, PBLUC_R_SQUARED 0.29, read-out: LUCIFERASE INFECTION ASSAY - IC50): 5.61 µM
CN1CCN(C(=O)c2cccc(-c3cnc4cnc(-c5cccc(Cl)c5)cn34)c2)CC1 | > 7.64 µM | IC50 (PBLUC_HILL_SLOPE 2.84, PBLUC_R_SQUARED 0.435, read-out: LUCIFERASE INFECTION ASSAY - IC50): 4.45 µM
CC[n+]1ccccc1C=Cc1ccc(N(C)C)cc1 | 6.2 µM | IC50 (HEPG2TOX_HILL_SLOPE 3.25, HEPG2TOX_R_SQUARED 0.92, PBLUC_HILL_SLOPE 1.1, PBLUC_R_SQUARED 0.874, read-out: LUCIFERASE INFECTION ASSAY - IC50): 0.835 µM
Cc1nn(-c2ccccc2)c(Sc2nc3ccccc3s2)c1/C=N/N1CCN(c2ccccn2)CC1 | 7.21 µM | IC50 (HEPG2TOX_HILL_SLOPE 19.8, HEPG2TOX_R_SQUARED 0.361, PBLUC_HILL_SLOPE 5.19, PBLUC_R_SQUARED 0.522, read-out: LUCIFERASE INFECTION ASSAY - IC50): 4.72 µM
COc1ccc(OC)c(/C=C/C(=O)Nc2cc(C(F)(F)F)ccc2Oc2ccc(Br)cc2)c1 | > 10 µM | IC50 (FFLUC_HILL_SLOPE 11.8, FFLUC_R_SQUARED 0.49, HEPG2TOX_HILL_SLOPE 2.88, HEPG2TOX_R_SQUARED 0.666, read-out: LUCIFERASE INFECTION ASSAY - IC50): > 10 µM
Cc1ccc2nc(NC(=O)c3ccc(F)cc3)c(C(=O)NC3CCCCC3)n2c1 | 4.51 µM | IC50 (HEPG2TOX_HILL_SLOPE 8.64, HEPG2TOX_R_SQUARED 0.539, PBLUC_HILL_SLOPE 8.68, PBLUC_R_SQUARED 0.013, read-out: LUCIFERASE INFECTION ASSAY - IC50): 3.5 µM
CNC(=O)C(Sc1nnc(Nc2ccc(C(C)C)cc2)s1)C(C)=O (configuration not stated) | > 10 µM | IC50 [1]: > 10 µM
CC(C)(C)c1ccc(C(=O)Nc2nnc(Sc3ccc([N+](=O)[O-])cc3C#N)s2)cc1 | 4.98 µM | IC50 (PBLUC_HILL_SLOPE 0.682, PBLUC_R_SQUARED 0.567, read-out: LUCIFERASE INFECTION ASSAY - IC50): 0.198 µM
Clc1ccccc1CN(Cc1nc2ccccc2[nH]1)Cc1nc2ccccc2[nH]1 | 4.32 µM | IC50 (FFLUC_HILL_SLOPE 12.2, FFLUC_R_SQUARED 0.134, HEPG2TOX_HILL_SLOPE 11.4, HEPG2TOX_R_SQUARED 0.932, PBLUC_HILL_SLOPE 13.3, PBLUC_R_SQUARED 0.326, read-out: LUCIFERASE INFECTION ASSAY - IC50): 3.67 µM

Compound | IC90 | also measured
O=C(Nc1ccc(Cl)cc1)/C(=C/c1ccc([N+](=O)[O-])cc1)c1nc2ccccc2s1 | > 10 µM | IC50 (PBLUC_HILL_SLOPE 3.91, PBLUC_R_SQUARED 0.341, read-out: LUCIFERASE INFECTION ASSAY - IC50): 7.67 µM
CCSc1nc(SCCCN(C)C)c2c3c(sc2n1)COC(C)(C)C3 | > 8.3 µM | IC50 [1]: > 8.3 µM
O=C(NC(=S)NN(C(=S)NC(=O)c1ccccc1Br)c1nc2ccccc2[nH]1)c1ccccc1Br | > 10 µM | IC50 [1]: > 10 µM
COc1ccc(-c2cnc3cnc(-c4ccsc4)cn23)cc1 | 4.82 µM | IC50 (HEPG2TOX_HILL_SLOPE 3.46, HEPG2TOX_R_SQUARED 0.703, PBLUC_HILL_SLOPE 8.9, PBLUC_R_SQUARED 0.737, read-out: LUCIFERASE INFECTION ASSAY - IC50): 3.76 µM
CCOc1ccc(NS(=O)(=O)c2ccc(NC(=O)c3ccc(OC)c(S(=O)(=O)N4CCCCC4C)c3)cc2)cc1 (configuration not stated) | > 10 µM | IC50 (PBLUC_HILL_SLOPE 11.8, PBLUC_R_SQUARED 0.201, read-out: LUCIFERASE INFECTION ASSAY - IC50): 9.44 µM
CCNC(=O)C(C)NC(=O)c1cc(-c2ccccc2)nc2c1cnn2Cc1ccccc1Cl (configuration not stated) | 0.0487 µM | IC50 (PBLUC_HILL_SLOPE 3.93, PBLUC_R_SQUARED 0.959, read-out: LUCIFERASE INFECTION ASSAY - IC50): 0.0279 µM
CCOc1ccc(N2CC(C(=O)N3CCCC(c4nc(C)no4)C3)CC2=O)cc1 (configuration not stated) | > 10 µM | IC50 [1]: > 10 µM
O=C(c1ccc(OCc2cccnc2)cc1)N1CCc2ccccc21 | > 10 µM | IC50 (HEPG2TOX_HILL_SLOPE 3.32, HEPG2TOX_R_SQUARED 0.856, read-out: LUCIFERASE INFECTION ASSAY - IC50): > 10 µM
CN1CCC2(CC1)CC(Nc1ccc(C(F)(F)F)cc1[N+](=O)[O-])c1ccccc1O2 (configuration not stated) | > 10 µM | IC50 (PBLUC_HILL_SLOPE 1.75, PBLUC_R_SQUARED 0.131, read-out: LUCIFERASE INFECTION ASSAY - IC50): > 10 µM
Cc1c(O)ccc2c(CNc3ccc(C(C)(C)C)cc3)cc(=O)oc12 | > 10 µM | IC50 (HEPG2TOX_HILL_SLOPE 0.191, HEPG2TOX_R_SQUARED 0.186, PBLUC_HILL_SLOPE 2.86, PBLUC_R_SQUARED 0.292, read-out: LUCIFERASE INFECTION ASSAY - IC50): 4.84 µM
C#CCSc1nnc(-c2ccc(C(C)(C)C)cc2)n1C | 5.91 µM | IC50 (PBLUC_HILL_SLOPE 2.86, PBLUC_R_SQUARED 0.337, read-out: LUCIFERASE INFECTION ASSAY - IC50): 2.74 µM
O=C(Nc1nn2cc(-c3ccccc3)nc2s1)C1CCC1 | 1.39 µM | IC50 (FFLUC_HILL_SLOPE 1.5, FFLUC_R_SQUARED 0.884, PBLUC_HILL_SLOPE 0.386, PBLUC_R_SQUARED 0.673, read-out: LUCIFERASE INFECTION ASSAY - IC50): 0.0047 µM
Cc1oc2cc(OCC(=O)N3CCc4ccccc43)ccc2c(=O)c1-c1c(F)cccc1Cl | > 10 µM | IC50 (FFLUC_HILL_SLOPE 15.3, FFLUC_R_SQUARED 0.621, read-out: LUCIFERASE INFECTION ASSAY - IC50): > 10 µM
O=C1CCCC2=C1C(c1ccccc1)C=C1c3cc4c(cc3CCN12)OCCCO4 (configuration not stated) | > 8.26 µM | IC50 [1]: > 8.26 µM
Cc1cc(NC(=O)C(C)(C)C)sc1C(=O)Nc1ccccc1O | 0.526 µM | 
COc1cccc(/C=C/c2nnc(O)c(C#N)c2C)c1 | 6.75 µM | IC50 (HEPG2TOX_HILL_SLOPE 3.05, HEPG2TOX_R_SQUARED 0.959, PBLUC_HILL_SLOPE 3.8, PBLUC_R_SQUARED 0.551, read-out: LUCIFERASE INFECTION ASSAY - IC50): 3.79 µM
CCN(c1ccccc1)S(=O)(=O)c1ccc(C(=O)NC2CCCCC2)cc1 | > 10 µM | IC50 (HEPG2TOX_HILL_SLOPE 0.154, HEPG2TOX_R_SQUARED 0.656, read-out: LUCIFERASE INFECTION ASSAY - IC50): > 10 µM
O=C(NC1CC1)c1ccc(-c2cnc3cnc(/C=C/c4ccccc4)cn23)cc1 | > 8.67 µM | IC50 (HEPG2TOX_HILL_SLOPE 0.214, HEPG2TOX_R_SQUARED 0.714, PBLUC_HILL_SLOPE 0.95, PBLUC_R_SQUARED 0.815, read-out: LUCIFERASE INFECTION ASSAY - IC50): 1.05 µM
COC(=O)c1c(C)[nH]c(C(=O)N2CCCN(Cc3ccc(C(F)(F)F)cc3)CC2)c1C | 3.51 µM | IC50 (HEPG2TOX_HILL_SLOPE 0.883, HEPG2TOX_R_SQUARED 0.94, PBLUC_HILL_SLOPE 33.9, PBLUC_R_SQUARED 0.31, read-out: LUCIFERASE INFECTION ASSAY - IC50): 3.29 µM
